Test results taken from patent US4822791A, “Pharmaceutical compositions of-2,2-1,1-[bis-2,2'-(3,1-benzoxazin-4-one)9 ethylenes” (priority 1984, dated 1989).
Like-named read-outs stand apart in the source and are kept apart here.

How the values were obtained:
hyaluronidase = target: T1, hyaluronidase (Bos taurus, UniProt Q2YDK3); assay: Anti-hyaluronidase activity (modified Morgan-Elson method); assay type: biochemical; conditions: hyaluronidase 340NF unit/ml; activating agent Compound 48/80 or CaCl2; read-out: IC50
T1 sequence (Q2YDK3 36-553): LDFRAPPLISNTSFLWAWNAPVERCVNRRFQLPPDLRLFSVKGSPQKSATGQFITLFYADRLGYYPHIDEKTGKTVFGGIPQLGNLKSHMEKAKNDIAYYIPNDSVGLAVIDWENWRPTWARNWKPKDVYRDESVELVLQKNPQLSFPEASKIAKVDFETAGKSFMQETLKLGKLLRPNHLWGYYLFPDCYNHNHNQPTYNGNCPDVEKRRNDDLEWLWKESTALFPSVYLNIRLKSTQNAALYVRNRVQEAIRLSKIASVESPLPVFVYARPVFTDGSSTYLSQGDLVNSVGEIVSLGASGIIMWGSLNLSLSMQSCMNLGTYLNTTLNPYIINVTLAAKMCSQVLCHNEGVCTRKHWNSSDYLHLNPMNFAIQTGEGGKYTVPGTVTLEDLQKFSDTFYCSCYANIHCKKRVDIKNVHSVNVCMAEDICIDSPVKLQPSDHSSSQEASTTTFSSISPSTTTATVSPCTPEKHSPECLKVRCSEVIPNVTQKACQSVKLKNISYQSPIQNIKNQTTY

[1] = tested on: passive cutaneous anaphylaxis (PCA); assay: Anti-passive cutaneous anaphylaxis (PCA) activity in rats (Test Example 2); assay type: in vivo, Wistar strain rats; conditions: Rattus norvegicus, N 10; for inhibition in vivo at 10 mg/kg: 10 mg/kg PO; for inhibition in vivo at 50 mg/kg: 50 mg/kg PO; for inhibition in vivo at 100 mg/kg: 100 mg/kg PO
Outline: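 Antiserum from Wistar rats sensitized with ovalbumin (alum plus B. pertussis adjuvant) was diluted 16- or 32-fold and injected into dorsal skin of naive rats, which were held 48 h. Compound was given orally 1 h before i.v. ovalbumin plus Evans blue.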

[2] = tested on: experimental ulcer model (Shay); assay: Anti-ulcer activity in experimental ulcer model (Shay); assay type: in vivo, Wistar strain male rats
Outline: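 Wistar male rats, 8 weeks old, 5 per group, fasted 48 h, pylorus ligated under ether (Shay method); compound in 0.5% CMC/0.1% Tween 80 given id or ip, vehicle to controls. Stomach removed 8 h later; ulcers scored, gastric juice volume, acidity (alkali titration), pepsin (haemoglobin substrate) expressed as % inhibition versus control mean.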

SRS-A = assay: Anti-SRS-A activity, contraction of guinea pig ileum by crude SRS-A solution; design: key to Anti-SRS-A activity (rate of inhibition against the contraction amount): % inhibition of SRS-A-induced ileum contraction
Description: A piece of lungs of guinea pig sensitized with ovalbumin was incubated with antigen ovalbumin at 37° C. for 20 minutes to obtain a supernatant solution, which was used as a crude SRS-A solution.
A piece of ileum of normal guinea pig was suspended in Magnus tube filled with Tyrode's solution and incubated with the solution of drug to be examined for a certain duration, and the contraction of the piece of ileum induced by adding the above crude SRS-A solution was determined on the basis of the contraction rate attributed to hystamine dihydrochloride 10^-6 M. The rate of inhibition against the contraction amount was taken as anti-SRS-A activity.

[3] = tested on: mast cell in abdominal cavity; assay: Inhibition of histamine release from mast cell in abdominal cavity in rat (Test Example 6); assay type: cell-based
Description: Examination was made on the activity of inhibition of histamine release from mast cell by antigen-antibody reaction.
Swine ascaris extract solution was dinitrophenylated according to Aisen's method, dialysed, and lyophilized. The product was administered as antigen together with Bordetella Pertussis vaccine subcutaneously into the foot pad of rat. Eight days later, blood was taken to obtain antiserum. The PCA titer for this antiserum in rat was 32 to 64.
Heparin-containing PBS was injected intraperitoneally to rat which was sacrificed by exsanguination, after which the abdomen was well massaged to collect the injected PBS, which was purified by washing several times by centrifugation. The number of the mast cells contained in the solution was determined and adjusted to the designed concentration. As to method of sensitizing the cell, the above cell suspension (6 ml, 2×10^6 cells/ml) was treated with anti-DNP-Ascaris rat serum (PCA titer 32) (6 ml) and the mixture was incubated in the presence of hepain at 37° C. for 2 hours.
To the sensitized mast cell suspension the solution of the drug to be tested was added, and the mixture was preliminarily incubated at 37° C. for 12 minutes. After addition of the solution of antigen DNP-Ascaris (final concentration, 20 microgramms/ml), the mixture was further incubated for 20 minutes. After completion of the reaction, the solution was centrifuged (500 G, 10 min.) under a low temperature to obtain a supernatant solution. Histamine contained in the supernatant solution was subjected to fluorometry by crthophthalaldehyde method.

[4] = tested on: passive cutaneous anaphylaxis (PCA); assay: Anti-passive cutaneous anaphylaxis activity (PCA) in rats (Test Example 9); assay type: in vivo; conditions: Rattus norvegicus, po, 50 mg/kg, 10 animals
Outline: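 Antiserum came from Wistar rats sensitized with ovalbumin (aluminium hydroxide plus B. pertussis adjuvant) and bled at day 14. It was diluted 12- and 24-fold and injected into the dorsal skin of naive rats 48 h before challenge.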

[5] = read-out: Average Inhibition Rate (%) Antiserum Dilution: × 16
[6] = read-out: Average Inhibition Rate (%) Antiserum Dilution: × 32

O=C(Nc1ccccc1C(=O)O)C(=Cc1ccccc1)C(=O)Nc1ccccc1C(=O)O [Compound 11, 2,2'-[(1,3-dioxo-2-phenylmethylene-1,3-propanediyl)diimino]bisbenzoic acid] was tested, and the IC50 (hyaluronidase) was 22 µM, the inhibition in vivo at 10 mg/kg [1, 5] was 23.2% and the inhibition in vivo at 10 mg/kg [1, 6] was 33.1%. For the same molecule, the inhibition in vivo at 50 mg/kg [1, 5] was 41.4%, the inhibition in vivo at 50 mg/kg [1, 6] was 39.1% and the inhibition in vivo at 100 mg/kg [1, 5] was 52.9%. The inhibition in vivo at 100 mg/kg [1, 6] was 53.5%, the “Inhibition % Gastric Acidity” value ([2]; id 100 mg/kg) was 4.7% and the “Inhibition % secretion amount of gastric juice” value ([2]; id 100 mg/kg) was 0%. The “Inhibition % total pepsin titer” value ([2]; id 100 mg/kg) was 0%, the “Inhibition % Gastric Acidity” value ([2]; id 200 mg/kg) was 16.5% and the “Inhibition % secretion amount of gastric juice” value ([2]; id 200 mg/kg) was 20.1%. The “Inhibition % total pepsin titer” value ([2]; id 200 mg/kg) was 9.1%, the “Anti-SRS-A activity (rate of inhibition against the contraction amount)” value (SRS-A; 10^-3 M) was 31.8 and the “Anti-SRS-A activity (rate of inhibition against the contraction amount)” value (SRS-A; 10^-4 M) was 0. For the same molecule, the “Anti-SRS-A activity (rate of inhibition against the contraction amount)” value (SRS-A; 10^-5 M) was 0, the “Anti-SRS-A activity (rate of inhibition against the contraction amount)” value (SRS-A; 10^-6 M) was 0 and the “anti-SRS-A activity (in words)” value (SRS-A; compound 11 at a concentration of 10^-3 M) was “moderate anti-SRS-A activity”. For the same molecule, the activity at 1000 µM ([3]; Rattus norvegicus, Mast cell, 20 min, 10^-3 M, DNP-Ascaris 20 microgramms/ml, read-out: Amount of histamine released from peritoneal mast cell (Control = 100)) was 13%, the activity at 100 µM ([3]; Rattus norvegicus, Mast cell, 20 min, 10^-4 M, DNP-Ascaris 20 microgramms/ml, read-out: Amount of histamine released from peritoneal mast cell (Control = 100)) was 59% and the activity at 10 µM ([3]; Rattus norvegicus, Mast cell, 20 min, 10^-5 M, DNP-Ascaris 20 microgramms/ml, read-out: Amount of histamine released from peritoneal mast cell (Control = 100)) was 51%. For the same molecule, the activity at 1 µM ([3]; Rattus norvegicus, Mast cell, 20 min, 10^-6 M, DNP-Ascaris 20 microgramms/ml, read-out: Amount of histamine released from peritoneal mast cell (Control = 100)) was 55%, the “inhibition of release of histamine from the mast cell (in words)” value ([3]; even at the low concentration of 10^-6 M) was “inhibiting release of histamine” and the inhibition in vivo at 50 mg/kg ([4]; read-out: Inhibition, Anti-serum Dilution: × 12) was 20.8%. The inhibition in vivo at 50 mg/kg ([4]; read-out: Inhibition, Anti-serum Dilution: × 24) was 23%.
